Data set [1] has as its system DOCK2. Details: method as in PMID 22520755. The note with it: cited from earlier work.
Data set [2] has as its target T1, full-length P-Rex1 (Homo sapiens, UniProt Q8TCU6).
T1 construct: Full-length N-terminally EE-tagged P-Rex1, P-Rex2, the P-Rex1 DH and DHPH domains and the P-Rex2 DH domain were produced in Sf9 cells; made in house; host or cells: Sf9 cells (baculovirus)
In words: Liposome-based GEF activity assay, PIP3-stimulated full-length P-Rex1. It counts as biochemical. The note with it: 200 µM, pilot experiments, EE-Rac2 substrate. An excerpt: All small GTPases and GEFs used were human recombinant proteins. EE-Rac1, EE-Rac2, GST-Cdc42 or GST-RhoA were expressed in Sf9 cells by baculoviral transduction and purified using their epitope tag in their post-translationally prenylated form using Triton X-114 phase separation, essentially as previously described. Briefly, frozen pellets from a 1 litre culture of Sf9 cells transduced with high-titre baculovirus expressing the small GTPase were resuspended in ice-cold Sf9-cell lysis buffer 1 (1x PBS, 40 mM HEPES pH 7.5 at RT, 5 mM MgCl2, 10 mM EGTA, 300 µM GDP, 1 mM DTT, 200 µM PMSF, 20 μg/ml each of leupeptin, pepstatin A, aprotinin and antipain) and lysed by sonication. Triton X-114 was added (to 1% final concentration), and samples were ultracentrifuged at 118,000 × g for 50 min at 4°C. The supernatant was warmed at 37°C until cloudy (30–60 seconds) and centrifuged at 1300 × g for 2 min at 37°C. The upper phase containing non-lipid modified GTPase was discarded and replaced with ice-cold Sf9-cell lysis buffer. The warming/centrifugation steps were repeated twice and lipid-modified GTPase resuspended in ice-cold Sf9-cell lysis buffer 1 supplemented with Triton X-100 (1% final concentration), followed by ultracentrifugation at 118,000 × g for 50 min at 4°C. For EE-tagged GTPases, supernatants were incubated with anti-EE antibody covalently coupled to protein G-Sepharose beads (anti-EE beads, Onyx Pharmaceuticals) and incubated with end-over-end rotation for 90 min on ice. Beads were washed 3 times in wash buffer (PBS, 5 mM MgCl2, 1 mM DTT, 10 μM GDP, 1 mM EGTA, 0.2% Triton X-100) and 5x in elution buffer (40 mM HEPES pH 7.5, 150 mM NaCl, 5 mM MgCl2, 1 mM EGTA, 1 mM DTT, 10 µM GDP). Protein was eluted by three incubations with elution buffer containing peptide Ac-EEYMPME (Activotec, Comberton, UK) and cholate (first 1%, then twice 0.5%) for 20 min on ice. For GST-tagged GTPases, supernatants were incubated with glutathione Sepharose beads and were eluted with glutathione in the same manner. Proteins were concentrated in a YM-10 Centricon (Millipore) at 5000 × g, 4°C. Protein concentration and purity was determined by coomassie staining of SDS-PAGE gels. For use in the mant-GTP assay, EE-Rac 1 was expressed in BL21 (DE3) bacteria (NEB, C25271), by induction with 0.5 mM IPTG overnight at 18°C. Bacterial pellets from 500 ml cultures were resuspended in 20 ml bacterial lysis buffer (40 mM Hepes, pH 7.5 at 4°C, 150 mM NaCl, 1% Triton X-100, 5 mM MgCl2, 1 mM DTT, 300 μM GDP, 200 µM PMSF, and 20 μg/ml each of leupeptin, pepstatin A, aprotinin and antipain) and were lysed by sonication. 5 μg/ml DNAse and 5 μg/ml RNAse were added and the lysate incubated on ice for 10 min. […]

In data set [3] the test system is HEK-293 cells. The data set is described as follows: Cell cycle stages by propidium iodide flow cytometry. It counts as cell-based. The note with it: 24 h treatment, 10 µM. As for the experimental part:
Human embryonic kidney 293 (HEK-293) cells were grown at 37°C in a humidified 5% CO2 atmosphere in Dulbecco’s modified Eagle medium (DMEM, Gibco) supplemented with 10% foetal bovine serum (FBS), 100 units/ml penicillin and 100 µg/ml streptomycin. Cells were passaged by tryptic digest 1:4 approximately every 2 days. To measure cell cycle stages, 2 ml HEK293 cells were plated per well of a 6-well dish (Thermo Scientific, Nunc) at 10^5 cells/ml. After 24 h, the medium was replaced with fresh medium containing various concentrations of PREX-in1, as indicated, or 10 μM NSC23766, or vehicle control (0.1% DMSO), and cells were incubated for a further 24 h. The medium was removed but kept aside to recover any detached cells. Wells were washed with PBS, and cells recovered by trypsinization. Cell suspensions were pooled with the culture supernatant and centrifuged at 433 × g for 5 min at RT. Cells were washed in PBS, resuspended in ice-cold 70% ethanol/PBS, and incubated for 30 min at 4°C for fixation and permeabilization. Cells were washed once more in PBS, then stained with 50 µg/ml propidium iodide in PBS containing 100 µg/ml RNase for 30 min at 37°C. Cells were analysed by flow cytometry for the intensity of propidium iodide staining using a FACSCalibur flow cytometer. 10,000 cells were analysed per sample. Data analysis was done using FloJo software.

Data set [4] deals with TrioN. Details: method as in PMID 15128949. The note with it: cited from earlier work.
Data set [5] concerns Tiam1. Details: method as in PMID 15128949. The following applies: cited from earlier work.
Data set [6] deals with T2, P-Rex1 DHPH domain (Homo sapiens, UniProt Q8TCU6).
T2 construct: 100 nM EE-P-Rex1 DHPH domains (PREX-in1, compounds 2–10 and 30–128); made in house; host or cells: Sf9 cells (baculovirus)
T2 sequence (Q8TCU6 49-392 limits assumed): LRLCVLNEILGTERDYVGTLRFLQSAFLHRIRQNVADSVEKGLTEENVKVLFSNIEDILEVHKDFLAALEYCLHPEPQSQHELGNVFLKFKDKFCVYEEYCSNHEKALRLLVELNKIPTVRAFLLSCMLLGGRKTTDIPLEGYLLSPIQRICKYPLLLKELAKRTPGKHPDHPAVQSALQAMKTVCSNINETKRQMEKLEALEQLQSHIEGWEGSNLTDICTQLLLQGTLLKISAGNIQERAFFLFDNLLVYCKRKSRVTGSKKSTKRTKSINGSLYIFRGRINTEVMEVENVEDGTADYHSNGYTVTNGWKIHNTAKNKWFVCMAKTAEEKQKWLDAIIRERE
The data set is described as follows: Mant-GTP GEF activity assay. It counts as biochemical. The following applies: 10 µM. As for the experimental part:
The mant-GTP GEF activity assay measures the binding of fluorescent 2’/3’-O-(N-Methyl-anthraniloyl)-guanosine-5’-triphosphate (mant)-GTP to Rac, making use of the spectroscopic differences between bound and free mant-GTP. P-Rex1 DHPH domain protein was diluted to 375 nM in exchange buffer (20 mM Tris, pH 7.5 RT, 50 mM NaCl, 200 mM KCl, 4 mM MgCl2, 50 μg/ml fatty-acid-free BSA). The inhibitors PREX-in1 or EHop-016 were diluted to various concentrations in exchange buffer containing 15% DMSO. 4.4 µl P-Rex1 DHPH domain protein were incubated with 1.1 µl PREX-in1 or EHop-016 for 30 min at 30°C, or were mock treated with 1.1 µl vehicle (15% DMSO). 5 μl of the P-Rex1 DHPH / inhibitor mix was then added to 10 µl of a 1.5x reaction mix containing 225 nM bacteria-derived EE-Rac1, 7.5 µM mant-GTP and 15 µM GTP in exchange buffer in a 96-well plate. Final assay concentrations were 150 nM EE-Rac1, 100 nM P-Rex1 DHPH domain, 5 μM mant-GTP, 10 µM GTP, […] fatty-acid-free BSA, 1% DMSO, and the indicated concentrations of inhibitor. Mant-GTP fluorescence was measured in real time in a PHERAstar 384-well fluorescence plate reader at 25°C for 40 min using 360 nm excitation and 440 nm emission.

The subject of data set [7] is Rac-dependent cell responses. Details: method as in PMID 22383527. The note with it: lamellipodia formation and migration; cited from earlier work.

T1 sequence (Q8TCU6 whole entry, the tested form may be a part): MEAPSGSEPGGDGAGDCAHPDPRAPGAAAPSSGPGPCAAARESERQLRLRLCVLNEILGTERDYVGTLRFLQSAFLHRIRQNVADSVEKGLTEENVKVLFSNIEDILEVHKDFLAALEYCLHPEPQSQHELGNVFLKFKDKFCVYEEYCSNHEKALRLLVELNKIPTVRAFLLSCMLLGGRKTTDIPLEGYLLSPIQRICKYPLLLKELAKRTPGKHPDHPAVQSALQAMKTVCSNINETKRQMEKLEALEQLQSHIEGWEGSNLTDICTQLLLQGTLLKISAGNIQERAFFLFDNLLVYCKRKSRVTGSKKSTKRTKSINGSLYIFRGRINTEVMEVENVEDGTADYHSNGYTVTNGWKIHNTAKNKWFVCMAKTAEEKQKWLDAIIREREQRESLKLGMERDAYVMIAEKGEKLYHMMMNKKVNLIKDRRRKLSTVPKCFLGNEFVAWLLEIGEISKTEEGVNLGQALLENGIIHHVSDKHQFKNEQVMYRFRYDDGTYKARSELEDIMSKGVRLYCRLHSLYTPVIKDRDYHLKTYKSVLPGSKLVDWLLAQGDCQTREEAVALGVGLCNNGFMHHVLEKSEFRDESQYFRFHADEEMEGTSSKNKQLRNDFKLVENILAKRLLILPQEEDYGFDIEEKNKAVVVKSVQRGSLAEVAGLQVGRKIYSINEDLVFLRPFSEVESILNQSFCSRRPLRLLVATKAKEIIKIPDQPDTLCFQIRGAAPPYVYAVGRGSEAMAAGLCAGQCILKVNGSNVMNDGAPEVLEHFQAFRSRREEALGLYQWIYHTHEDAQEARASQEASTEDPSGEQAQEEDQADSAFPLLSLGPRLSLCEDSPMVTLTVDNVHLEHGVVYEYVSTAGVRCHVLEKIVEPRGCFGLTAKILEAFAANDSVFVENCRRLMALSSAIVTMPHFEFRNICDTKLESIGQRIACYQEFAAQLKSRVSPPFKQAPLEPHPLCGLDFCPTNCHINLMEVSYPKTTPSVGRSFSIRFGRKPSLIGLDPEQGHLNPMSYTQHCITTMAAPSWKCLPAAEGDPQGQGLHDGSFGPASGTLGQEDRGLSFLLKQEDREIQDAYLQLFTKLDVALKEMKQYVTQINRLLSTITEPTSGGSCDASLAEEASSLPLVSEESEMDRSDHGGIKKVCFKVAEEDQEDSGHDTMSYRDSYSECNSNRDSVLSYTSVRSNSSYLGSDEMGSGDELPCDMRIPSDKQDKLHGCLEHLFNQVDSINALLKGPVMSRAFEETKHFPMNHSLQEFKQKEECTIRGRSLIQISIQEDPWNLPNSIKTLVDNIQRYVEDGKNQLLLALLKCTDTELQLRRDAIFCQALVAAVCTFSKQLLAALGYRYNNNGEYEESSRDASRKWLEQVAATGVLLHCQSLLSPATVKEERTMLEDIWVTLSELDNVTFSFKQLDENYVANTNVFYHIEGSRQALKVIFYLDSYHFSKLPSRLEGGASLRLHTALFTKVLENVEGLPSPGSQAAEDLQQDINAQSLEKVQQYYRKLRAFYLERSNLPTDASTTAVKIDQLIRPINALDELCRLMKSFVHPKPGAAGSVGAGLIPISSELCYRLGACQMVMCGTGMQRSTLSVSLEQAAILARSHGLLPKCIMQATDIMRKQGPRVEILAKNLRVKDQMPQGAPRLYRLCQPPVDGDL

What is called IC50 is the concentration that gives 50% inhibition. Turning to `O=C1NN(c2ccccc2)C(=O)/C1=C/C=C/c1ccccc1Cl` [CPYPP], the IC50 in data set [1] was 22.8 µM.

Regarding `CCN(CC)CCCC(C)Nc1nc(C)cc(Nc2ccc3nc(C)cc(N)c3c2)n1` (stereo not shown) [NSC23766, reference compound], in data set [2], the “effect on PIP3-stimulated Rac-GEF activity of full-length P-Rex1” value is given as “did not appear to inhibit”. The “cell death (sub-G1 phase)” value in data set [3] is “caused cell death to a similar extent”. Besides, the IC50 in data set [4] and in data set [5] was around 50 µM in each case.

Turning to `CCn1c2ccccc2c2cc(Nc3ccnc(NCCCN4CCOCC4)n3)ccc21` [EHop-016, reference compound], the “effect on P-Rex1 DHPH-dependent mant-GTP loading of Rac1” value in data set [6] is listed as “did not affect”. Also, in data set [7], the “IC50 for blocking Rac-dependent cell responses” value was “low micromolar”.
